In patent US10519162B2, “6,7-dihydropyrazolo[1,5-α]pyrazin-4(5H)-one compounds and their use as negative allosteric modulators of mGluR2 receptors” (Janssen Pharmaceutica NV, priority 2014, dated 2019):
Where two headings read alike, the source gives them in different places.

Tests used:
[1] = target: T1, human mGlu2 receptor (Homo sapiens, UniProt Q14416); assay: [35S]GTPγS binding assay (mGluR2 negative allosteric modulation, glutamate ~EC80 60 μM); assay type: biochemical; conditions: for Emax: read-out: GTPγS-hmGluR2 anGT Emax; for IC50: glutamate ~EC80 (60 μM), pIC50 = −log IC50 (M)
T1 construct: expressed in transfected cells; host or cells: CHO cells
T1 sequence (Q14416 19-872): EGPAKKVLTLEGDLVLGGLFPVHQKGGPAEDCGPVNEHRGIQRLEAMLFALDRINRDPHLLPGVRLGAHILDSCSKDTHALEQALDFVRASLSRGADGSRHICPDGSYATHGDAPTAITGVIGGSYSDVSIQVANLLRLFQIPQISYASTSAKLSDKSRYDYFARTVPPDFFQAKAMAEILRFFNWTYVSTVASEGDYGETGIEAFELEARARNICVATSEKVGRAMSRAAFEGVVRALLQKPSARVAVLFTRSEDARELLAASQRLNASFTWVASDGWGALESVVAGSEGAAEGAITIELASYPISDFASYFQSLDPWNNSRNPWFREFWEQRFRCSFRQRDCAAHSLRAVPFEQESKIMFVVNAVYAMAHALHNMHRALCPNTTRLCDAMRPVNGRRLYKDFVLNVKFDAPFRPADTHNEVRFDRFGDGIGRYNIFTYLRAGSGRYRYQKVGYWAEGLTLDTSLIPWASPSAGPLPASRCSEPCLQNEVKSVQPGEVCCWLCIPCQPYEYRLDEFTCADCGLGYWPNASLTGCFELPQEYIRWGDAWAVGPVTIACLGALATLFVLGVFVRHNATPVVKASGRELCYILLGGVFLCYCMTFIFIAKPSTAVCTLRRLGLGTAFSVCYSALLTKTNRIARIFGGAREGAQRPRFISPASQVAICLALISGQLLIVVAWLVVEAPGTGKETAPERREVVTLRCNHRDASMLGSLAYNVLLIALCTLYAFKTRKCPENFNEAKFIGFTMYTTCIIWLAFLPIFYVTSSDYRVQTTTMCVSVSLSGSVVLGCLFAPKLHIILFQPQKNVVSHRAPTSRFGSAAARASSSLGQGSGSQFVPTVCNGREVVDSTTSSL
Protocol: 1) [^35S]GTPγS Binding Assay
[^35S]GTPγS Binding Assay
Total reaction volume was 200 μl. […] Membrane-bound radioactivity was counted in a Topcount.

[2] = tested on: rats; assay: Reversal of the effect of the mGluR2 PAM JNJ-42153605-induced inhibition of scopolamine-induced hyperlocomotion (SCOP JNJ-42153605); assay type: in vivo, rat; conditions: for ED50: Rattus norvegicus, PO (oral route), rats, reversal criterion total distance >1500 cm
Protocol: 2) Reversal of the Effect of the mGluR2 PAM JNJ-42153605-Induced Inhibition of Scopolamine-Induced Hyperlocomotion Apparatus
Motor activity was measured in microprocessor-based motor activity arenas (closed gray PVC cylinders with a height of 39 cm and a diameter of 31 cm). Each arena was placed on an infrared LED (8×8 LEDs) lit box (white PVC squared box; 40×40 cm^2; height 12.5 cm. An infrared-sensitive tube camera and a white light source were mounted to the ceiling above the observation chamber to track the animal. The total distance traveled (cm) was recorded and analyzed using the Noldus Ethovision XT Video Tracking System (Version 7.0.418; Noldus, Wageningen, The Netherlands). The intensity of the light within the activity cages (measured in the centre at the level of the floor) ranged between 4 and 8 LUX.
The rats were pretreated with test compound or vehicle at 60 min before the start of the activity recordings and placed into individual cages. The rats were challenged with JNJ-42153605 (3-(cyclopropylmethyl)-7-(4-phenylpiperidin-1-yl)-8-(trifluoromethyl)[1,2,4]triazolo[4,3-a]pyridine; WO2010/130424; Cid et al. J. Med. Chem. 2012, 55, 8770-8789) (20 mg/kg, i.v.) 30 min before the start of the activity recording combined with scopolamine (0.16 mg/kg, i.v.) just before the start of the activity measurements. Immediately after the injection of scopolamine, the rats were placed into the activity monitors and total distance travelled over the first 30 min was measured.
Solvent-Pretreated Control Rats.
Animals receiving the combination of JNJ-42153605 and scopolamine (n=433) almost always travelled a distance of less than 1500 cm (<1500 cm) (only 2.5% of the control rats travelled a distance of more than 1500 cm (>1500 cm)). On the other hand, animals challenged with scopolamine alone (n=215) always travelled a total distance of more than 1500 cm (>1500 cm) and almost always (in 95.8% of the rats) a distance of more than 4400 cm (>4400 cm). […] For reversal of the inhibitory effect of JNJ-42153605 on the scopolamine-induced hyperlocomotion, the following all-or-none criteria were adopted: (1) reversal: total distance >1500 cm.

[3] = maximal % inhibition relative to the control glutamate response (EC80 glutamate)
[4] = membranes from CHO cells transfected with human mGlu2 receptor, read-out: GTPγS-hmGluR2 anGT pIC50 (converted)
[5] = historical solvent-pretreated control rats, first 30 min

| Structure (SMILES) | Emax [1, 3] | IC50 [1, 4] | melting point | further results |
| --- | --- | --- | --- | --- |
| Cc1cnc(N)c(C(=O)Nc2cnn3c2C(=O)N(c2ccc(S(F)(F)(F)(F)F)cc2)C[C@@H]3C)c1 [Co. No. 200] | 111% | 1.48e-09 M | 197.51 °C | ED50 [2]: > 0.63 mg/kg |
| C[C@H]1CN(c2ccc(C(F)(F)F)cc2)C(=O)c2c(NC(=O)c3cnc(N)cn3)cnn21 [Co. No. 45] | 106% | 1.2e-08 M | 287.45 °C | ED50 [2]: > 2.5 mg/kg |
| C[C@H]1CN(c2ccc(Cl)cc2)C(=O)c2c(NC(=O)c3cccnc3N)cnn21 [Co. No. 198] | 109% | 4.07e-09 M | 209.11 °C | ED50 [2]: > 0.63 mg/kg |
| CN1[C@@H]2C[C@@H](OC(=O)[C@H](CO)c3ccccc3)C[C@H]1[C@@H]1O[C@@H]12 [Scopolamine, scopolamine, reference compound] | – | – | – | Rats with total distance >1500 cm (%) [2, 5]: 100%; Rats with total distance >4400 cm (%) [2, 5]: 95.8%; Total distance travelled, median (cm) ([2]; historical solvent-pretreated control rats, first 30 min, scopolamine 0.16 mg/kg i.v., JNJ-42153605 20 mg/kg i.v.): 7246 cm |
| C[C@H]1CN(c2ccc(Cl)cc2)C(=O)c2c(NC(=O)c3ccc(N)nc3)cnn21 [Co. No. 36] | 110% | 8.91e-09 M | – | ED50 [2]: 0.5 mg/kg |
| C[C@H]1CN(c2ccc(Cl)c(OC(F)F)c2)C(=O)c2c(NC(=O)c3ccc(N)nc3)cnn21 [Co. No. 18] | 117% | 4.27e-09 M | – | ED50 [2]: > 2.5 mg/kg |
| Cc1cncc(C(=O)Nc2cnn3c2C(=O)N(c2ccc(C(F)(F)F)c(Cl)c2)C[C@@H]3C)c1C [Co. No. 133] | 109% | 3.31e-09 M | 172.8 °C | – |
| C[C@H]1CN(c2ccc(C(F)(F)F)cc2)C(=O)c2c(NC(=O)c3cncn3C)cnn21 [Co. No. 91] | 101% | 3.47e-07 M | 162.27 °C | – |
| C[C@H]1CN(c2ccc(C(F)(F)F)cc2)C(=O)c2c(NC(=O)c3ccc(F)cn3)cnn21 [Co. No. 48] | 108% | 1.32e-08 M | 221.22 °C | – |
| COc1ccccc1C(=O)Nc1cnn2c1C(=O)N(c1ccc(C(F)(F)F)c(OC)n1)C[C@@H]2C [Co. No. 75] | 103% | 5.37e-08 M | 231.11 °C | – |
| Cc1cnc(N)c(C(=O)Nc2cnn3c2C(=O)N(c2ccc(Cl)cc2)C[C@@H]3C)c1 [Co. No. 201] | 108% | 4.9e-09 M | – | ED50 [2]: > 0.63 mg/kg |
| COc1cc(F)ccc1C(=O)Nc1cnn2c1C(=O)N(c1ccc(C(F)(F)F)cc1)C[C@@H]2C [Co. No. 58] | 101% | 2.19e-08 M | 240.77 °C | – |
| COc1cccc(C(=O)Nc2cnn3c2C(=O)N(c2ccc(C(F)(F)F)cc2)C[C@@H]3C)n1 [Co. No. 21] | 106% | 4.68e-09 M | 199.24 °C | – |
| Cc1cc(N)ncc1C(=O)Nc1cnn2c1C(=O)N(c1ccc(C(F)(F)F)c(Cl)c1)C[C@@H]2C [Co. No. 164] | 108% | 1.35e-09 M | 233.32 °C | – |
| Cc1cc(C(=O)Nc2cnn3c2C(=O)N(c2ccc(C(F)(F)F)cc2)C[C@@H]3C)on1 [Co. No. 71] | 97% | 3.8e-08 M | 243.14 °C | – |
| C[C@H]1CN(c2ccc(C(F)(F)F)c(Cl)c2)C(=O)c2c(NC(=O)c3cccnc3NCCO)cnn21 (racemic) [Co. No. 214] | 112% | 5.25e-10 M | – | ED50 [2]: 0.32 mg/kg |
| C[C@H]1CN(c2ccc(C(F)(F)F)cc2)C(=O)c2c(NC(=O)c3ccncc3)cnn21 [Co. No. 55] | 105% | 2e-08 M | 145.26 °C | – |
| C[C@H]1CN(c2ccc(C(F)(F)F)cn2)C(=O)c2c(NC(=O)c3ccc(N)nc3)cnn21 [Co. No. 61] | 103% | 2.45e-08 M | 223.46 °C | – |

| Structure (SMILES) | Emax [1, 3] | IC50 [1, 4] | melting point | further results |
| --- | --- | --- | --- | --- |
| COc1c(F)cccc1C(=O)Nc1cnn2c1C(=O)N(c1ccc(C(F)(F)F)cc1)C[C@@H]2C [Co. No. 19] | 117% | 4.37e-09 M | 170.98 °C | – |
| COc1ccc(C(=O)Nc2cnn3c2C(=O)N(c2ccc(C(F)(F)F)cc2)C[C@@H]3C)c(F)c1 [Co. No. 44] | 115% | 1.12e-08 M | 214.58 °C | – |
| C[C@H]1CN(c2ccc(C(F)(F)F)cc2)C(=O)c2c(NC(=O)c3ccc(S(=O)(=O)F)cc3)cnn21 [Co. No. 218] | – | – | 163.64 °C | IC50 ([1]; GTPγS-hmGluR2 anGT pIC50, membranes from CHO cells transfected with human mGlu2 receptor): 4.37e-08 M; Emax [1]: 112% |
| COc1ccc(F)cc1C(=O)Nc1cnn2c1C(=O)N(c1ccc(C(F)(F)F)cc1)C[C@@H]2C [Co. No. 10] | 113% | 2.57e-09 M | 204.35 °C | – |
| C[C@H]1CN(c2ccc(C(F)(F)F)cc2)C(=O)c2c(NC(=O)c3ncco3)cnn21 [Co. No. 63, N-[(7S)-7-Methyl-4-oxo-5-[4-(trifluoromethyl)phenyl]-6,7-dihydropyrazolo[1,5-a]pyrazin-3-yl]oxazole-2-carboxamide] | 109% | 2.63e-08 M | 204.97 °C | – |
| Cc1cccnc1C(=O)Nc1cnn2c1C(=O)N(c1ccc(C(F)(F)F)cc1)C[C@@H]2C [Co. No. 57] | 103% | 2.04e-08 M | 292.16 °C | – |
| C[C@H]1CN(c2ccc(OC(F)(F)F)c(Cl)c2)C(=O)c2c(NC(=O)c3cccnc3)cnn21 [Co. No. 195] | 105% | 1.58e-09 M | 181.21 °C | – |
| O=C(Nc1cnn2c1C(=O)N(c1ccc(C(F)(F)F)cc1)CC2)c1cccnc1 [Co. No. 190] | 102% | 1.07e-06 M | 162.12 °C | – |
| C[C@H]1CN(c2ccc(C(F)(F)F)cc2)C(=O)c2c(NC(=O)c3c[nH]c(N)n3)cnn21 [Co. No. 94, 2-Amino-N-[(7S)-7-methyl-4-oxo-5-[4-(trifluoromethyl)phenyl]-6,7-dihydropyrazolo[1,5-a]pyrazin-3-yl]-1H-imidazole-4-carboxamide] | 98% | 4.57e-07 M | 272.72 °C | – |
| Cc1ncc(C(=O)Nc2cnn3c2C(=O)N(c2ccc(C(F)(F)F)cc2)C[C@@H]3C)cn1 [Co. No. 88] | 99% | 2.24e-07 M | 231.1 °C | – |
| C[C@H]1CN(c2ccc(C(F)(F)F)cc2)C(=O)c2c(NC(=O)c3cncc(F)n3)cnn21 [Co. No. 219, 6-fluoro-N-[(7S)-7-methyl-4-oxo-5-[4-(trifluoromethyl)phenyl]-6,7-dihydropyrazolo[1,5-a]pyrazin-3-yl]pyrazine-2-carboxamide] | 107% | 3.31e-09 M | 183.54 °C | – |
| Cc1cc(C(=O)Nc2cnn3c2C(=O)N(c2ccc(C(F)(F)F)cc2)C[C@@H]3C)nc(N)n1 [Co. No. 180] | 107% | 4.37e-08 M | 265.47 °C | – |
| Cc1cccc(C(=O)Nc2cnn3c2C(=O)N(c2ccc(C(F)(F)F)cc2)C[C@@H]3C)c1 [Co. No. 9] | 106% | 2.45e-09 M | 147.4 °C | – |
| Cc1nc(C(=O)Nc2cnn3c2C(=O)N(c2ccc(C(F)(F)F)cc2)C[C@@H]3C)co1 [Co. No. 81] | 103% | 1.02e-07 M | 189.92 °C | – |
| COCc1ccccc1C(=O)Nc1cnn2c1C(=O)N(c1ccc(C(F)(F)F)cc1)C[C@@H]2C [Co. No. 78] | 105% | 5.62e-08 M | 88.18 °C | – |
| COCC1CN(c2ccc(C(F)(F)F)cc2)C(=O)c2c(NC(=O)c3ccc(N)nc3)cnn21 (single isomer, unassigned) [Co. No. 96] | 95% | 1.45e-06 M | 225.83 °C | – |
| C[C@H]1CN(c2ccc(C(F)(F)F)cc2)C(=O)c2c(NC(=O)c3ncc[nH]3)cnn21 [Co. No. 80] | 111% | 1e-07 M | 275.03 °C | – |
| COCc1cncc(C(=O)Nc2cnn3c2C(=O)N(c2ccc(C(F)(F)F)cc2)C[C@@H]3C)c1 [Co. No. 138] | 106% | 2.95e-08 M | 149.93 °C | – |
